Assay results: patent US20120077737A1, “HEPATITIS C INHIBITOR COMPOUNDS” (priority 2009, published 2012)

Legend:
[1] = test system: HCV genotype 1a subgenomic replicon with NS3 resistance mutation R155K; experiment: HCV replicon RNA replication assay, R155K 1a; type: cell-based, HCV genotype 1a (strain H77), Huh-7 cells; details: Hepatitis C virus, Huh-7, 72 h, read-out: R155K 1a Ec50 (nM)
[2] = test system: HCV genotype 1b subgenomic replicon with NS3 resistance mutation D168V; experiment: HCV replicon RNA replication assay, D168V 1b; type: cell-based, HCV genotype 1b (Con-1), Huh-7 cells; details: Hepatitis C virus, Huh-7, 72 h, read-out: D168V 1b Ec50 (nM)
[3] = test system: HCV genotype 1a subgenomic replicon with NS3 resistance mutation D168V; experiment: HCV replicon RNA replication assay, D168V 1a; type: cell-based, HCV genotype 1a (strain H77), Huh-7 cells; details: Hepatitis C virus, Huh-7, 72 h, read-out: D168V 1a Ec50 (nM)
[4] = test system: HCVPV1b subgenomic replicon (wild type 1b); experiment: HCV replicon RNA replication assay, wild type 1b; type: cell-based, HCV genotype 1b (Con-1), Huh-7 cells; details: Hepatitis C virus; Table 1; luciferase replicon, Huh-7, 72 h; read-out: WT 1b Ec50
[5] = test system: HCVPV1a subgenomic replicon (wild type 1a); experiment: HCV replicon RNA replication assay, wild type 1a; type: cell-based, HCV genotype 1a (strain H77), Huh-7 cells; details: Hepatitis C virus; Table 1; luciferase replicon, Huh-7, 72 h; read-out: WT 1a Ec50

| Structure (SMILES) | EC50 [1] [nM] | EC50 [2] [nM] | EC50 [3] [nM] | EC50 [4] [nM] | EC50 [5] [nM] |
| --- | --- | --- | --- | --- | --- |
| COc1ccc2c(O[C@@H]3C[C@H]4C(=O)N[C@]5(C(=O)NS(=O)(=O)C6CC6)C[C@H]5/C=C\CCCCC[C@H](NC(=O)c5ccc(C(C)(C)O)s5)C(=O)N4C3)cc(OC(C)C)nc2c1C [Compound 1014, (2R,6S,12Z,13aS,14aR,16aS)-N-(cyclopropylsulfonyl)-6-({[5-(2-hydroxypropan-2-yl)thiophen-2-yl]carbonyl}amino)-2-{[7-methoxy-8-methyl-2-(propan-2-yloxy)quinolin-4-yl]oxy}-5,16-dioxo-1,2,3,6,7,8,9,10,11,13a,14,15,16,16a-tetradecahydrocyclopropa[e]pyrrolo[1,2-a][1,4]diazacyclopentadecine-14a(5H)-carboxamide] | 8.5 | 0.82 | 6.3 | 1.2 | 1.2 |
| COCCn1ccc(C(=O)N[C@H]2CCCCC/C=C\[C@@H]3C[C@@]3(C(=O)NS(=O)(=O)C3(C)CC3)NC(=O)[C@@H]3C[C@@H](Oc4cc(OC(C)C)nc5c(C)c(OC)ccc45)CN3C2=O)n1 [Compound 1002, (2R,6S,12Z,13aS,14aR,16aS)-6-({[1-(2-methoxyethyl)-1H-pyrazol-3-yl]carbonyl}amino)-2-{[7-methoxy-8-methyl-2-(propan-2-yloxy)quinolin-4-yl]oxy}-N-[(1-methylcyclopropyl)sulfonyl]-5,16-dioxo-1,2,3,6,7,8,9,10,11,13a,14,15,16,16a-tetradecahydrocyclopropa[e]pyrrolo[1,2-a][1,4]diazacyclopentadecine-14a(5H)-carboxamide] | 1.5 | 0.12 | 2.8 | 0.32 | 0.38 |
| COc1ccc2c(O[C@@H]3C[C@H]4C(=O)N[C@]5(C(=O)NS(=O)(=O)C6(C)CC6)C[C@H]5/C=C\CCCCC[C@H](NC(=O)c5cnn(C)n5)C(=O)N4C3)cc(OC(C)C)nc2c1C [Compound 1006, (2R,6S,12Z,13aS,14aR,16aS)-2-{[7-methoxy-8-methyl-2-(propan-2-yloxy)quinolin-4-yl]oxy}-N-[(1-methylcyclopropyl)sulfonyl]-6-{[(2-methyl-2H-1,2,3-triazol-4-yl)carbonyl]amino}-5,16-dioxo-1,2,3,6,7,8,9,10,11,13a,14,15,16,16a-tetradecahydrocyclopropa[e]pyrrolo[1,2-a][1,4]diazacyclopentadecine-14a(5H)-carboxamide] | 2.2 | 0.17 | 9.6 | 0.18 | 0.19 |
| Cc1c(F)ccc2c(O[C@@H]3C[C@H]4C(=O)N[C@]5(C(=O)NS(=O)(=O)C6(C)CC6)C[C@H]5/C=C\CCCCC[C@H](NC(=O)c5ccn(C)n5)C(=O)N4C3)cc(OC(C)C)nc12 [Compound 1008, (2R,6S,12Z,13aS,14aR,16aS)-2-{[7-fluoro-8-methyl-2-(propan-2-yloxy)quinolin-4-yl]oxy}-N-[(1-methylcyclopropyl)sulfonyl]-6-{[(1-methyl-1H-pyrazol-3-yl)carbonyl]amino}-5,16-dioxo-1,2,3,6,7,8,9,10,11,13a,14,15,16,16a-tetradecahydrocyclopropa[e]pyrrolo[1,2-a][1,4]diazacyclopentadecine-14a(5H)-carboxamide] | 1.9 | 0.2 | 6.6 | 0.35 | 0.24 |
| COc1c(F)ccc2c(O[C@@H]3C[C@H]4C(=O)N[C@]5(C(=O)NS(=O)(=O)C6(C)CC6)C[C@H]5/C=C\CCCCC[C@H](NC(=O)c5ccn(CC(F)F)n5)C(=O)N4C3)cc(OC(C)C)nc12 [Compound 1022, (2R,6S,12Z,13aS,14aR,16aS)-6-({[1-(2,2-difluoroethyl)-1H-pyrazol-3-yl]carbonyl}amino)-2-{[7-fluoro-8-methoxy-2-(propan-2-yloxy)quinolin-4-yl]oxy}-N-[(1-methylcyclopropyl)sulfonyl]-5,16-dioxo-1,2,3,6,7,8,9,10,11,13a,14,15,16,16a-tetradecahydrocyclopropa[e]pyrrolo[1,2-a][1,4]diazacyclopentadecine-14a(5H)-carboxamide] | 1.3 | 0.62 | 0.97 | 0.41 | 0.42 |
| COc1ccc2c(O[C@@H]3C[C@H]4C(=O)N[C@]5(C(=O)NS(=O)(=O)C6CC6)C[C@H]5/C=C\CCCCC[C@H](NC(=O)c5ccn(CC(F)F)n5)C(=O)N4C3)cc(OC(C)C)nc2c1C [Compound 1011, (2R,6S,12Z,13aS,14aR,16aS)-N-(cyclopropylsulfonyl)-6-({[1-(2,2-difluoroethyl)-1H-pyrazol-3-yl]carbonyl}amino)-2-{[7-methoxy-8-methyl-2-(propan-2-yloxy)quinolin-4-yl]oxy}-5,16-dioxo-1,2,3,6,7,8,9,10,11,13a,14,15,16,16a-tetradecahydrocyclopropa[e]pyrrolo[1,2-a][1,4]diazacyclopentadecine-14a(5H)-carboxamide] | 3.9 | 0.24 | 6.4 | 0.35 | 0.43 |
| COc1c(F)ccc2c(O[C@@H]3C[C@H]4C(=O)N[C@]5(C(=O)NS(=O)(=O)C6CC6)C[C@H]5/C=C\CCCCC[C@H](NC(=O)c5ccn(C)n5)C(=O)N4C3)cc(OC(C)C)nc12 [Compound 1016, (2R,6S,12Z,13aS,14aR,16aS)-N-(cyclopropylsulfonyl)-2-{[7-fluoro-8-methoxy-2-(propan-2-yloxy)quinolin-4-yl]oxy}-6-{[(1-methyl-1H-pyrazol-3-yl)carbonyl]amino}-5,16-dioxo-1,2,3,6,7,8,9,10,11,13a,14,15,16,16a-tetradecahydrocyclopropa[e]pyrrolo[1,2-a][1,4]diazacyclopentadecine-14a(5H)-carboxamide] | 7.9 | 1 | 3.9 | 1.1 | 1.5 |
| COc1c(F)ccc2c(O[C@@H]3C[C@H]4C(=O)N[C@]5(C(=O)NS(=O)(=O)C6(C)CC6)C[C@H]5/C=C\CCCCC[C@H](NC(=O)c5ccn(CC(F)(F)F)n5)C(=O)N4C3)cc(OC(C)C)nc12 [Compound 1026, (2R,6S,12Z,13aS,14aR,16aS)-2-{[7-fluoro-8-methoxy-2-(propan-2-yloxy)quinolin-4-yl]oxy}-N-[(1-methylcyclopropyl)sulfonyl]-5,16-dioxo-6-({[1-(2,2,2-trifluoroethyl)-1H-pyrazol-3-yl]carbonyl}amino)-1,2,3,6,7,8,9,10,11,13a,14,15,16,16a-tetradecahydrocyclopropa[e]pyrrolo[1,2-a][1,4]diazacyclopentadecine-14a(5H)-carboxamide] | 1.6 | 0.34 | 0.7 | 0.31 | 0.52 |
| COc1c(F)ccc2c(O[C@@H]3C[C@H]4C(=O)N[C@]5(C(=O)NS(=O)(=O)C6(C)CC6)C[C@H]5/C=C\CCCCC[C@H](NC(=O)c5ccn(C(F)F)n5)C(=O)N4C3)cc(OC(C)C)nc12 [Compound 1027, (2R,6S,12Z,13aS,14aR,16aS)-6-({[1-(difluoromethyl)-1H-pyrazol-3-yl]carbonyl}amino)-2-{[7-fluoro-8-methoxy-2-(propan-2-yloxy)quinolin-4-yl]oxy}-N-[(1-methylcyclopropyl)sulfonyl]-5,16-dioxo-1,2,3,6,7,8,9,10,11,13a,14,15,16,16a-tetradecahydrocyclopropa[e]pyrrolo[1,2-a][1,4]diazacyclopentadecine-14a(5H)-carboxamide] | 4.7 | 0.39 | 2.2 | 0.33 | 0.47 |
| COCc1ccc(C(=O)N[C@H]2CCCCC/C=C\[C@@H]3C[C@@]3(C(=O)NS(=O)(=O)C3CC3)NC(=O)[C@@H]3C[C@@H](Oc4cc(OC(C)C)nc5c(C)c(OC)ccc45)CN3C2=O)s1 [Compound 1009, (2R,6S,12Z,13aS,14aR,16aS)-N-(cyclopropylsulfonyl)-2-{[7-methoxy-8-methyl-2-(propan-2-yloxy)quinolin-4-yl]oxy}-6-({[5-(methoxymethyl)thiophen-2-yl]carbonyl}amino)-5,16-dioxo-1,2,3,6,7,8,9,10,11,13a,14,15,16,16a-tetradecahydrocyclopropa[e]pyrrolo[1,2-a][1,4]diazacyclopentadecine-14a(5H)-carboxamide] | 3.6 | 0.24 | 7.2 | 0.46 | 0.43 |
| COc1c(F)ccc2c(O[C@@H]3C[C@H]4C(=O)N[C@]5(C(=O)NS(=O)(=O)C6(C)CC6)C[C@H]5/C=C\CCCCC[C@H](NC(=O)c5ccn(C)n5)C(=O)N4C3)cc(OC(C)C)nc12 [Compound 1013, (2R,6S,12Z,13aS,14aR,16aS)-2-{[7-fluoro-8-methoxy-2-(propan-2-yloxy)quinolin-4-yl]oxy}-N-[(1-methylcyclopropyl)sulfonyl]-6-{[(1-methyl-1H-pyrazol-3-yl)carbonyl]amino}-5,16-dioxo-1,2,3,6,7,8,9,10,11,13a,14,15,16,16a-tetradecahydrocyclopropa[e]pyrrolo[1,2-a][1,4]diazacyclopentadecine-14a(5H)-carboxamide] | 1.6 | 0.45 | 0.75 | 0.37 | 0.5 |
